Organism: Rattus norvegicus
Assay: Open TG-GATES - Regimen: Daily Repeat
Type: toxicity, organism-based, Sprague-Dawley
Set-up: regimen Daily Repeat, gender Male, age 6 weeks
Conditions: in vivo, po, 0 mg/kg, route gavage, dose level Control; for APTT / Bas / Eos / Fbg / Hb / Ht / Lym / MCH / MCHC / MCV / Mono / Neu / PT / Plat / RBC / Ret / WBC: tissue Blood; for KIDNEY_L / KIDNEY_R / KIDNEY_TOTAL: tissue Kidney; for LIVER: tissue Liver; for A/G / ALP / ALT / AST / BUN / CRE / Ca / Cl / DBIL / GLC / IP / K / LDH / Na / PL / RALB / TBIL / TC / TG / TP / gamma-GTP: tissue Plasma

Compound `Cn1c(=O)c2[nH]cnc2n(C)c1=O.O` [THEOPHYLLINE] has a TERMINAL_BW (72 h, time 3 day) of 247 g, an APTT (72 h, time 3 day) of 23.1 s and a Bas (72 h, time 3 day) of 0%. The Eos (72 h, time 3 day) was 0.8%, the Fbg (72 h, time 3 day) was 314.4 mg/dL and the Hb (72 h, time 3 day) was 13.2 g/dL. It also gave a Ht (72 h, time 3 day) of 39.5%, a Lym (72 h, time 3 day) of 79.4% and an MCH (72 h, time 3 day) of 21.2 pg. For the same compound, the MCHC (72 h, time 3 day) was 33.5%, the MCV (72 h, time 3 day) was 63.2 fL and the Mono (72 h, time 3 day) was 3.2%. The Neu (72 h, time 3 day) was 15.2%, the PT (72 h, time 3 day) was 15 s and the Plat (72 h, time 3 day) was 114.7 x10_4/uL. For the same compound, the RBC (72 h, time 3 day) was 625.4 x10_4/ul, the Ret (72 h, time 3 day) was 7.3% and the WBC (72 h, time 3 day) was 109 x10_2/uL. The KIDNEY_L (72 h, time 3 day) was 1.1 g, the KIDNEY_R (72 h, time 3 day) was 1.1 g and the KIDNEY_TOTAL (72 h, time 3 day) was 2.2 g. For the same compound, the LIVER (72 h, time 3 day) was 12.2 g, the A/G (72 h, time 3 day) was 1.2 and the ALP (72 h, time 3 day) was 1800.8 IU/L. It also gave an ALT (72 h, time 3 day) of 48.4 IU/L, an AST (72 h, time 3 day) of 71.4 IU/L and a BUN (72 h, time 3 day) of 17.6 mg/dL. For the same compound, the CRE (72 h, time 3 day) was 0.2 mg/dL, the Ca (72 h, time 3 day) was 10.7 mg/dL and the Cl (72 h, time 3 day) was 105.8 meq/L. It also gave a DBIL (72 h, time 3 day) of 0 mg/dL, a GLC (72 h, time 3 day) of 203.8 mg/dL and an IP (72 h, time 3 day) of 8.5 mg/dL. It also gave a K (72 h, time 3 day) of 4.3 meq/L, an LDH (72 h, time 3 day) of 183.6 IU/L and a Na (72 h, time 3 day) of 141 meq/L. For the same compound, the PL (72 h, time 3 day) was 156.6 mg/dL, the RALB (72 h, time 3 day) was 3 g/dL and the TBIL (72 h, time 3 day) was 0 mg/dL. The TC (72 h, time 3 day) was 85 mg/dL, the TG (72 h, time 3 day) was 96.2 mg/dL and the TP (72 h, time 3 day) was 5.5 g/dL. The gamma-GTP (72 h, time 3 day) was 1.6 IU/L, the TERMINAL_BW ([…], time 7 day) was 278.6 g and the TERMINAL_BW ([…], time 14 day) was 330.3 g. For the same compound, the TERMINAL_BW ([…], time 28 day) was 378.5 g, the APTT ([…], time 7 day) was 21.8 s and the Bas ([…], time 7 day) was 0%. The Eos ([…], time 7 day) was 1%, the Fbg ([…], time 7 day) was 305.4 mg/dL and the Hb ([…], time 7 day) was 13.9 g/dL. The Ht ([…], time 7 day) was 40.5%, the Lym ([…], time 7 day) was 77.8% and the MCH ([…], time 7 day) was 20.9 pg. It also gave an MCHC ([…], time 7 day) of 34.2%, an MCV ([…], time 7 day) of 61.2 fL and a Mono ([…], time 7 day) of 2.8%. The Neu ([…], time 7 day) was 17.4%, the PT ([…], time 7 day) was 15.8 s and the Plat ([…], time 7 day) was 112 x10_4/uL. It also gave an RBC ([…], time 7 day) of 662 x10_4/ul, a Ret ([…], time 7 day) of 6% and a WBC ([…], time 7 day) of 113.8 x10_2/uL. It also gave an APTT ([…], time 14 day) of 24.2 s, a Bas ([…], time 14 day) of 0% and an Eos ([…], time 14 day) of 0.8%. The Fbg ([…], time 14 day) was 324.6 mg/dL, the Hb ([…], time 14 day) was 14.5 g/dL and the Ht ([…], time 14 day) was 42.5%. It also gave a Lym ([…], time 14 day) of 79.2%, an MCH ([…], time 14 day) of 21 pg and an MCHC ([…], time 14 day) of 34.1%. It also gave an MCV ([…], time 14 day) of 61.5 fL, a Mono ([…], time 14 day) of 3% and a Neu ([…], time 14 day) of 15.2%. It also gave a PT ([…], time 14 day) of 15.6 s, a Plat ([…], time 14 day) of 114.6 x10_4/uL and an RBC ([…], time 14 day) of 691.8 x10_4/ul. It also gave a Ret ([…], time 14 day) of 4.4%, a WBC ([…], time 14 day) of 138.2 x10_2/uL and an APTT ([…], time 28 day) of 24.9 s. The Bas ([…], time 28 day) was 0%, the Eos ([…], time 28 day) was 1% and the Fbg ([…], time 28 day) was 303 mg/dL. It also gave a Hb ([…], time 28 day) of 14.8 g/dL, a Ht ([…], time 28 day) of 42.6% and a Lym ([…], time 28 day) of 80.2%. For the same compound, the MCH ([…], time 28 day) was 18.9 pg, the MCHC ([…], time 28 day) was 34.8% and the MCV ([…], time 28 day) was 54.6 fL. For the same compound, the Mono ([…], time 28 day) was 1.6%, the Neu ([…], time 28 day) was 15% and the PT ([…], time 28 day) was 16.2 s. The Plat ([…], time 28 day) was 98.8 x10_4/uL, the RBC ([…], time 28 day) was 783 x10_4/ul and the Ret ([…], time 28 day) was 2.7%. For the same compound, the WBC ([…], time 28 day) was 113.3 x10_2/uL, the KIDNEY_L ([…], time 7 day) was 1.2 g and the KIDNEY_R ([…], time 7 day) was 1.3 g. It also gave a KIDNEY_TOTAL ([…], time 7 day) of 2.5 g, a KIDNEY_L ([…], time 14 day) of 1.3 g and a KIDNEY_R ([…], time 14 day) of 1.3 g. The KIDNEY_TOTAL ([…], time 14 day) was 2.7 g, the KIDNEY_L ([…], time 28 day) was 1.4 g and the KIDNEY_R ([…], time 28 day) was 1.4 g. It also gave a KIDNEY_TOTAL ([…], time 28 day) of 2.8 g, an LIVER ([…], time 7 day) of 12.9 g and an LIVER ([…], time 14 day) of 15.4 g. It also gave an LIVER ([…], time 28 day) of 15.4 g, an A/G ([…], time 7 day) of 1.2 and an ALP ([…], time 7 day) of 1566.8 IU/L. It also gave an ALT ([…], time 7 day) of 43.8 IU/L, an AST ([…], time 7 day) of 80.4 IU/L and a BUN ([…], time 7 day) of 20 mg/dL. The CRE ([…], time 7 day) was 0.2 mg/dL, the Ca ([…], time 7 day) was 10.3 mg/dL and the Cl ([…], time 7 day) was 106.6 meq/L. The DBIL ([…], time 7 day) was 0 mg/dL, the GLC ([…], time 7 day) was 212.2 mg/dL and the IP ([…], time 7 day) was 7.5 mg/dL. It also gave a K ([…], time 7 day) of 4.6 meq/L, an LDH ([…], time 7 day) of 253.2 IU/L and a Na ([…], time 7 day) of 141.4 meq/L. The PL ([…], time 7 day) was 145.2 mg/dL, the RALB ([…], time 7 day) was 3 g/dL and the TBIL ([…], time 7 day) was 0 mg/dL. For the same compound, the TC ([…], time 7 day) was 69.4 mg/dL, the TG ([…], time 7 day) was 106.2 mg/dL and the TP ([…], time 7 day) was 5.6 g/dL. The gamma-GTP ([…], time 7 day) was 1.8 IU/L, the A/G ([…], time 14 day) was 1.1 and the ALP ([…], time 14 day) was 1434.6 IU/L. For the same compound, the ALT ([…], time 14 day) was 38.2 IU/L, the AST ([…], time 14 day) was 68.4 IU/L and the BUN ([…], time 14 day) was 18.6 mg/dL. It also gave a CRE ([…], time 14 day) of 0.2 mg/dL, a Ca ([…], time 14 day) of 10.3 mg/dL and a Cl ([…], time 14 day) of 107 meq/L. The DBIL ([…], time 14 day) was 0 mg/dL, the GLC ([…], time 14 day) was 188.2 mg/dL and the IP ([…], time 14 day) was 7.3 mg/dL. For the same compound, the K ([…], time 14 day) was 4.4 meq/L, the LDH ([…], time 14 day) was 184.4 IU/L and the Na ([…], time 14 day) was 142 meq/L. For the same compound, the PL ([…], time 14 day) was 149.2 mg/dL, the RALB ([…], time 14 day) was 3.1 g/dL and the TBIL ([…], time 14 day) was 0.004 mg/dL. For the same compound, the TC ([…], time 14 day) was 71.4 mg/dL, the TG ([…], time 14 day) was 135.4 mg/dL and the TP ([…], time 14 day) was 5.9 g/dL. For the same compound, the gamma-GTP ([…], time 14 day) was 2.6 IU/L, the A/G ([…], time 28 day) was 1 and the ALP ([…], time 28 day) was 1140.2 IU/L. The ALT ([…], time 28 day) was 38.6 IU/L, the AST ([…], time 28 day) was 64.8 IU/L and the BUN ([…], time 28 day) was 18.2 mg/dL. It also gave a CRE ([…], time 28 day) of 0.2 mg/dL, a Ca ([…], time 28 day) of 10.3 mg/dL and a Cl ([…], time 28 day) of 106.4 meq/L. For the same compound, the DBIL ([…], time 28 day) was 0 mg/dL, the GLC ([…], time 28 day) was 204.6 mg/dL and the IP ([…], time 28 day) was 6.5 mg/dL. It also gave a K ([…], time 28 day) of 4.1 meq/L, an LDH ([…], time 28 day) of 132.2 IU/L and a Na ([…], time 28 day) of 142.4 meq/L. The PL ([…], time 28 day) was 140.6 mg/dL, the RALB ([…], time 28 day) was 3.1 g/dL and the TBIL ([…], time 28 day) was 0.01 mg/dL. For the same compound, the TC ([…], time 28 day) was 65 mg/dL, the TG ([…], time 28 day) was 145.6 mg/dL and the TP ([…], time 28 day) was 6.1 g/dL. The gamma-GTP ([…], time 28 day) was 2.8 IU/L.

Source: ChEMBL document CHEMBL3885861, “Open TG-GATES”
